Data taken from patent US6180615A, “Propargyl phenyl ether A2A receptor agonists” (CV Therapeutics, Inc., priority 1999, dated 2001).

Biological target: T1, A2A receptor (Sus scrofa, UniProt K9IW67)
T1 construct: from tissue; host or cells: pig striatum membranes
Experiment: affinity for the A2A receptor in a pig striatum membrane prep (displacement of tritiated antagonist ZM 241385)
Type: binding
Conditions: pig striatal membranes, adenosine deaminase, 50 mM Tris pH 7.4, 2 nM tritiated ZM 241385, 23° C. for 2 h
Procedure: Compositions of this invention were assayed to determine their affinity for the A2A receptor in a pig striatum membrane prep. 0.2 mg of pig striatal membranes were treated with adenosine deaminase and 50 mM Tris buffer (pH=7.4) followed by mixing. To the pig membranes was added 2 μL of serially diluted DMSO stock solution of the compounds of this invention at concentrations ranging from 100 μM to 10 nM or the control received 2 μL of DMSO alone, then the tritiated antagonist ZM 241385 in Tris buffer (50 mM, pH of 7.4) was added to achieve a final concentration of 2 nM . After incubation at 23° C. for 2 h, the solutions were filtered using a membrane harvester using multiple washing of the membranes (3×). The filter disks where counted in scintillation cocktail affording the amount of displacement of tritiated ZM by the competitive binding compositions of this invention. Greater than a 5 point curve was used to generate IC50's and the number of experiments (n) is indicated in the column marked in Table 1 below.

T1 sequence (K9IW67 1-409): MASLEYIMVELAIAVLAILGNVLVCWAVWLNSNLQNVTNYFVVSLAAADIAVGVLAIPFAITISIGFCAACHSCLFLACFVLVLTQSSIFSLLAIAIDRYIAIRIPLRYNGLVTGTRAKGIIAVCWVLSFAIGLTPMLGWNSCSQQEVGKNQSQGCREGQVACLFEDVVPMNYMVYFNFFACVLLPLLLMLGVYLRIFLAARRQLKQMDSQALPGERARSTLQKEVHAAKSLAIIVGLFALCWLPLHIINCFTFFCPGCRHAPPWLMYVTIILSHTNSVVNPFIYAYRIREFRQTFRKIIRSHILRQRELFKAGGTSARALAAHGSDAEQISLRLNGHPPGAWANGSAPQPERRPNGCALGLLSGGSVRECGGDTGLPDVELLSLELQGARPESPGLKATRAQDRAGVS

Row | SMILES | Ki [nM]
1 | Nc1nc(C#CCOc2ccccc2-c2ccccc2)nc2c1ncn2[C@@H]1O[C@H](CO)[C@@H](O)[C@H]1O [Compound 10, (4S,2R,3R,5R)-2-{6-amino-2-[3-(2-phenylphenoxy)prop-1-ynyl]purin-9-yl}-5-(hydroxymethyl)oxolane-3,4-diol] | 100 to 1000
2 | Nc1nc(C#CCOc2ccccc2)nc2c1ncn2[C@@H]1O[C@H](CO)[C@@H](O)[C@H]1O [Compound 11, (4S,2R,3R,5R)-2-[6-amino-2-(3-phenoxyprop-1-ynyl)purin-9-yl]-5-(hydroxymethyl)oxolane-3,4-diol] | 10 to 100
3 | N#Cc1ccc(OCC#Cc2nc(N)c3ncn([C@@H]4O[C@H](CO)[C@@H](O)[C@H]4O)c3n2)cc1 [Compound 12, 4-(3-{9-[(4S,2R,3R,5R)-3,4-dihydroxy-5-(hydroxymethyl)oxolan-2-yl]-6-aminopurin-2-yl}prop-2-ynyloxy)benzenecarbonitrile] | 100 to 1000
4 | Nc1nc(C#CCOc2ccc(-c3ccccc3)cc2)nc2c1ncn2[C@@H]1O[C@H](CO)[C@@H](O)[C@H]1O [Compound 13, (4S,2R,3R,5R)-2-{6-amino-2-[3-(4-phenylphenoxy)prop-1-ynyl]purin-9-yl}-5-(hydroxymethyl)oxolane-3,4-diol] | 1000 to 10000
5 | Nc1nc(C#CCOc2ccccc2Cc2ccccc2)nc2c1ncn2[C@@H]1O[C@H](CO)[C@@H](O)[C@H]1O [Compound 14] | 100 to 1000
6 | Nc1nc(C#CCOc2cccc3c2OCO3)nc2c1ncn2[C@@H]1O[C@H](CO)[C@@H](O)[C@H]1O [Compound 15, 2-[2-(3-(2H-benzo[2,3-d]1,3-dioxolen-4-yloxy)prop-1-ynyl)-6-aminopurin-9-yl](4S,2R,3R,5R)-5-(hydroxymethyl)oxolane-3,4-diol] | 10 to 100
7 | CC(C)(C)c1cc(OCC#Cc2nc(N)c3ncn([C@@H]4O[C@H](CO)[C@@H](O)[C@H]4O)c3n2)cc(C(C)(C)C)c1 [Compound 16, (4S,2R,3R,5R)-2-(6-amino-2-{3-[3,5-bis(tert-butyl)phenoxy]prop-1-ynyl}purin-9-yl)-5-(hydroxymethyl)oxolane-3,4-diol] | 1000 to 10000
